Experimental data from US20260209215A1, “GLYCINE DERIVATIVES WITH P2X4 RECEPTOR-BLOCKING ACTIVITY AS DIAGNOSTICS AND FOR THE TREATMENT OF PAIN, INFLAMMATION, CANCER, AND OTHER P2X4 RECEPTOR-RELATED DISEASES” (RHEINISCHE-FRIEDRICH-WILHELMS-UNIVERSITÄT BONN, priority 2022, published 2026).
pIC50: −log10 of the molar value.

Target: T1, P2X4 receptor (Homo sapiens, UniProt Q99571)
T1 construct: expressed in transfected cells; host or cells: 1321N1 astrocytoma cells, retroviral vector pQCXIN, G418 selection, monoclones
T1 sequence (Q99571 1-388): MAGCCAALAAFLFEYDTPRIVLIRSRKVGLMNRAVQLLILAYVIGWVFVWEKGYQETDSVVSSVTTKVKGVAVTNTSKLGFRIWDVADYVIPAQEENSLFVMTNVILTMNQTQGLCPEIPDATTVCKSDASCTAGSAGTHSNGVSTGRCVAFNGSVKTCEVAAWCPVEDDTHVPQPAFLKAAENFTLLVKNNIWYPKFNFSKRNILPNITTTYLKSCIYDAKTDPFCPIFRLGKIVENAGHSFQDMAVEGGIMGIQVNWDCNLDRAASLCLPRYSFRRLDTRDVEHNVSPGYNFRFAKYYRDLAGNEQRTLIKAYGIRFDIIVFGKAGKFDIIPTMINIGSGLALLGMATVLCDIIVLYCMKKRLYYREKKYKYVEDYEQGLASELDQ
Assay: Measurement of Ca2+ influx in transfected 1321N1 astrocytoma cells (P2X4 inhibitory potency)
Assay type: cell-based
Details: agonist-mediated Ca2+ influx, FLUO-4, 1321N1 astrocytoma cells; antagonists added 30 min before agonist
From the text: The rat, mouse, and human P2X4 DNA, respectively, were cloned into the retroviral vector pQCXIN. 1321N1 Astrocytoma cells were transfected with the DNA using a retroviral system as described previously. In brief, GP+envAM12 packaging cells were first transiently co-transfected with a retroviral vector to generate the retrovirus and with a vesicular stomatitis virus G protein (VSV-G) to pseudotype the virus and to increase their infection efficiency. The viruses containing the rat, mouse or human P2X4 receptor sequence were then used to create a stable astrocytoma cell line. P2X4 receptor-expressing cells were selected with G418 ([…]).
The selection of monoclones for rat and human P2X4 receptors was performed using the limited dilution method by plating the cells at very low cell densities (1 cell clone per well in 96-well plates). Cells were counted, and then several dilutions were made to obtain a concentration of […]. We subsequently added 100 µL of the diluted cell suspension into each well expecting to obtain on average 1 cell per well. After a few days the wells that contained single clones were labeled and transferred into 24 well plates. More than 20 clones were selected for each cell line and characterized in calcium influx assay.
Measurement of Ca^2+ influx in transfected 1321N1 astrocytoma cells
P2X receptor function was determined on the basis of agonist-mediated increases in cytosolic Ca^2+ concentration. The fluorescent Ca^2+chelating dye FLUO-4 was used as an indicator of the relative levels of intracellular Ca^2+ in a 96-well format using a fluorescence imaging plate reader (Novostar, BMG, Germany). Cells were grown to confluence in 96-well black-walled tissue culture plates and loaded with FLUO-4 AM ([…]) in Hank's balanced salt solution (HBSS, containing 10 mM HEPES, pH 7.3, and 1% Pluronic® F127) for 1 h at 23° C. After incubation, the loaded cells were washed with the same buffer to remove extracellular FLUO-4 AM. Compound solutions were prepared in HBSS (containing 20 mM HEPES, pH 7.3) or DMSO depending on their solubility. […] Fluorescence intensity was measured at 520 nm for 30 s at 0.4 s intervals. Buffer or test compounds were injected sequentially into separate wells using the automatic pipetting device. At least three independent experiments were performed in triplicate or duplicate. Antagonists were added 30 min before the addition of agonists. The assays were performed in a final volume of 200 μL. Compounds were tested at 7-8 different concentrations spanning three orders of magnitude of concentrations. Statistical significances were calculated using the unpaired two-tailed t-test.

Compound | pIC50
CCc1nsc(-c2ccc(C)c(NCC(=O)N3CCc4c(C(=O)N5CCN(C)CC5)cccc43)c2)n1 [Example 45, 2-((5-(3-ethyl-1,2,4-thiadiazol-5-yl)-2-methylphenyl)amino)-1-(4-(4-methylpiperazine-1-carbonyl)indolin-1-yl) ethan-1-one] | 7.41 to 7.70
COc1ccc(-c2nc(C)ns2)cc1NCC(=O)c1c[nH]c2c(OC)cccc12 [Example 93, 1-(7-methoxy-1H-indol-3-yl)-2-((2-methoxy-5-(3-methyl-1,2,4-thiadiazol-5-yl)phenyl)-amino)ethan-1-one] | 7.72 to 10.00
Cc1nsc(-c2ccc(C)c(NCC(=O)N3CCc4c(-c5cccnc5)cccc43)c2)n1 [Example 32, 2-((2-methyl-5-(3-methyl-1,2,4-thiadiazol-5-yl)phenyl)amino)-1-(4-(pyridin-3-yl)indolin-1-yl)ethan-1-one] | 7.72 to 10.00
CCc1nsc(-c2ccc(C)c(NCC(=O)N3CCc4c(N5CC(O)C5)cccc43)c2)n1 [Example 66, 2-((5-(3-ethyl-1,2,4-thiadiazol-5-yl)-2-methylphenyl)amino)-1-(4-(3-hydroxyazetidin-1-yl)indolin-1-yl)ethan-1-one] | 7.41 to 7.70
Cc1nsc(-c2ccc(C)c(NCC(=O)N3CCc4c(NC(=O)[C@H](O)[C@@H](O)C(=O)O)cccc43)c2)n1 [Example 82, (2R,3R)-2,3-dihydroxy-4-((1-((2-methyl-5-(3-methyl-1,2,4-thiadiazol-5-yl)phenyl)-glycyl)indolin-4-yl)amino)-4-oxobutanoic acid] | 7.00 to 7.15
Cc1nsc(-c2ccc(C)c(NCC(=O)c3c[nH]c4ccccc34)c2)n1 [Example 102, 1-(1H-indol-3-yl)-2-((2-methyl-5-(3-methyl-1,2,4-thiadiazol-5-yl)phenyl)amino)ethan-1-one] | 7.41 to 7.70
Cc1ccc(-c2ccc(C)c(NCC(=O)N3CCc4c(CO)cccc43)c2)o1 [Example 28, 1-(4-(hydroxymethyl)indolin-1-yl)-2-((2-methyl-5-(5-methylfuran-2-yl)phenyl)amino)ethan-1-one] | 7.72 to 10.00
Cc1noc(-c2ccc(C)c(NCC(=O)N3CCc4c3cccc4N3C(=O)CNC3=O)c2)n1 [Example 83, 3-(1-((2-methyl-5-(3-methyl-1,2,4-oxadiazol-5-yl)phenyl)glycyl)indolin-4-yl)imidazolidine-2,4-dione] | 7.41 to 7.70
CCc1nsc(-c2ccc(C)c(NCC(=O)N3CCc4c3cccc4S(=O)(=O)NC)c2)n1 [Example 26, 1-((5-(3-ethyl-1,2,4-thiadiazol-5-yl)-2-methylphenyl)glycyl)-N-methylindoline-N-sulfonamide] | 7.72 to 10.00
Cc1nsc(-c2ccc(C)c(NCC(=O)N3CCc4c(C(O)C(F)(F)F)cccc43)c2)n1 (stereo not drawn) [Example 33, 2-((2-methyl-5-(3-methyl-1,2,4-thiadiazol-5-yl)phenyl)amino)-1-(4-(2,2,2-trifluoro-1-hydroxyethyl)indolin-1-yl)ethan-1-one] | 7.41 to 7.70
CCc1noc(-c2ccc(OC)c(NCC(=O)c3c[nH]c4cc(OC)ccc34)c2)n1 [Example 96, 2-((5-(3-ethyl-1,2,4-oxadiazol-5-yl)-2-methoxyphenyl)amino)-1-(6-methoxy-1H-indol-3-yl)ethan-1-one] | 7.72 to 10.00
COc1ccc(-c2ccc(C)cn2)cc1NCC(=O)N1CCc2c(OC)cccc21 [Example 120, 2-((2-methoxy-5-(5-methyl-pyridin-2-yl)phenyl)amino)-1-(4-methoxyindolin-1-yl) ethan-1-one] | 7.16 to 7.40
Cc1noc(-c2ccc(F)c(NCC(=O)N3CCc4c3cccc4C(C)(O)CO)c2)n1 (stereo not drawn) [Example 60, 1-(4-(1,2-dihydroxypropan-2-yl)indolin-1-yl)-2-((2-fluoro-5-(3-methyl-1,2,4-oxadiazol-5-yl)phenyl)amino)ethan-1-one] | 7.16 to 7.40
COc1ccc(-c2nc(C)ns2)cc1NCC(=O)n1ccc2cc(F)ccc21 [Example 6, 1-(5-fluoro-1H-indol-1-yl)-2-((2-methoxy-5-(3-methyl-1,2,4-thiadiazol-5-yl)phenyl)amino-) ethan-1-one] | 7.00 to 7.15
Cc1nc(-c2ccc(C)c(NCC(=O)c3c[nH]c4ccccc34)c2)no1 [Example 106, 1-(1H-indol-3-yl)-2-((2-methyl-5-(5-methyl-1,2,4-oxadiazol-3-yl)phenyl)amino)ethan-1-one] | 7.16 to 7.40
Cc1nsc(-c2ccc(C)c(NCC(=O)N3CCc4c3cccc4C(C)(F)CO)c2)n1 (stereo not drawn) [Example 63, 1-(4-(2-fluoro-1-hydroxypropan-2-yl)indolin-1-yl)-2-((2-methyl-5-(3-methyl-1,2,4-thiadiazol-5-yl)phenyl)amino)ethan-1-one] | 7.72 to 10.00
CCc1noc(-c2ccc(OC)c(NCC(=O)N3CCc4ccc(Br)cc43)c2)n1 [Example 9, 1-(6-bromoindolin-1-yl)-2-((5-(3-ethyl-1,2,4-oxadiazol-5-yl)-2-methoxyphenyl)amino) ethan-1-one] | 7.16 to 7.40

Other lines, results leading:

pIC50 | Compound
7.16 to 7.40 | Cc1nsc(-c2ccc(C)c(NCC(=O)N3CCc4c3cccc4S(N)(=O)=O)c2)n1 [Example 51, 1-((2-methyl-5-(3-methyl-1,2,4-thiadiazol-5-yl)phenyl)glycyl)-indoline-4-sulfonamide]
7.41 to 7.70 | Cc1nsc(-c2ccc(C)c(NCC(=O)c3cn4c5c(cccc35)CCC4)c2)n1 [Example 103, 1-(5,6-dihydro-4H-pyrrolo[3,2,1-ij]quinolin-1-yl)-2-((2-methyl-5-(3-methyl-1,2,4-thiadiazol-5-yl)phenyl)amino)ethan-1-one]
7.41 to 7.70 | Cc1nsc(-c2ccc(C)c(NCC(=O)N3CCc4c(C(C)O)cccc43)c2)n1 (stereo not drawn) [Example 29, 1-(4-(1-hydroxyethyl)indolin-1-yl)-2-((2-methyl-5-(3-methyl-1,2,4-thiadiazol-5-yl)phenyl)amino)ethan-1-one]
7.72 to 10.00 | Cc1noc(-c2ccc(C)c(NCC(=O)N3CCc4c(N5CCC(O)C5)cccc43)c2)n1 (stereo not drawn) [Example 25, 1-(4-(3-hydroxy-pyrrolidin-1-yl)indolin-1-yl)-2-((2-methyl-5-(3-methyl-1,2,4-oxadiazol-5-yl)phenyl)amino)ethan-1-one]
7.72 to 10.00 | Cc1nsc(-c2ccc(C)c(NCC(=O)N3CCc4c(OCC(C)(C)O)cccc43)c2)n1 [Example 12, 1-(4-(2-hydroxy-2-methylpropoxy)indolin-1-yl)-2-((2-methyl-5-(3-methyl-1,2,4-thiadiazol-5-yl)phenyl)amino)]
7.72 to 10.00 | Cc1nsc(-c2ccc(C)c(NCC(=O)N3CCc4c3cccc4C3(O)COC3)c2)n1 [Example 55, 1-(4-(3-hydroxyoxetan-3-yl)indolin-1-yl)-2-((2-methyl-5-(3-methyl-1,2,4-thiadiazol-5-yl)phenyl)amino)ethan-1-one]
7.16 to 7.40 | CCc1noc(-c2cc(NCC(=O)c3c[nH]c4cc(OC)ccc34)c(OC)cc2Br)n1 [Example 109, 2-((4-bromo-5-(3-ethyl-1,2,4-oxadiazol-5-yl)-2-methoxy-phenyl)amino)-1-(6-methoxy-1H-indol-3-yl)ethan-1-one]
< 7.00 | Cc1nsc(-c2ccc(C)c(NCC(=O)N3CCc4c3ccnc4C(C)(C)O)c2)n1 [Example 90, 1-(4-(2-Hydroxypropan-2-yl)-2,3-dihydro-1H-pyrrolo[3,2-c]pyridin-1-yl)-2-((2-methyl-5-(3-methyl-1,2,4-thiadiazol-5-yl)phenyl)amino)ethan-1-one]
7.41 to 7.70 | CC(=O)N(c1cccc2c1CCN2C(=O)CNc1cc(-c2nc(C)ns2)ccc1C)S(C)(=O)=O [Example 77, N-(1-((2-methyl-5-(3-methyl-1,2,4-thiadiazol-5-yl)phenyl)-glycyl)indolin-4-yl)-N-(methylsulfonyl)acetamide]
< 7.00 | Cc1nsc(-c2ccc(C)c(NCC(=O)N3CCc4c3cncc4C(C)(C)O)c2)n1 [Example 91, 1-(4-(2-Hydroxypropan-2-yl)-2,3-dihydro-1H-pyrrolo[2,3-c]pyridin-1-yl)-2-((2-methyl-5-(3-methyl-1,2,4-thiadiazol-5-yl)phenyl)amino)ethan-1-one]
